Measurements as given in PubChem BioAssay (NCI).
Where “and” joins values, the source holds several entries; their conditions need not be identical. Equal values may be shown once.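 Tested at 5 concentrations; 48 h exposure; 96-well plates; endpoints linearly interpolated, else capped at highest concentration. Abbreviation: GI50, concentration required for 50% inhibition of growth. The concentration for full growth arrest is given as TGI.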 Where a SMILES comes first, the peptide text is derived from it. [ ]: non-standard residue; d: D form. ξ: configuration not given here. Pentanoyl(2-O,4-OH,5-Cl) = O=C(O)C(O)CC(O)CCl; Ile(3ξ) = CCC(C)[C@H](N)C(=O)O; NMeV = CN[C@H](C(=O)O)C(C)C; NMeA = CN[C@@H](C)C(=O)O; βAla = NCCC(=O)O

Assays:
Test in all cases: inhibition of tumour cell growth, NCI panel, 48 h
[1] = system: BT-549 breast
[2] = system: HT29 colon
[3] = system: IGROV1 ovarian
[4] = system: K-562 leukemia
[5] = system: LOX IMVI melanoma
[6] = system: NCI-H226 lung
[7] = system: NCI-H23 lung
[8] = system: NCI-H460 lung
[9] = system: PC-3 prostate
[10] = system: SK-MEL-5 melanoma

Compound	GI50 [1]	TGI [1]	GI50 [2]	TGI [2]	GI50 [3]	TGI [3]	GI50 [4]	TGI [4]	GI50 [5]	TGI [5]	GI50 [6]	TGI [6]	GI50 [7]	TGI [7]	GI50 [8]	TGI [8]	GI50 [9]	TGI [9]	GI50 [10]	TGI [10]
Cc1ccc(NC(=O)c2ccoc2)cc1-c1ccc(C(=O)NCC2CC2)cc1	> 19.7 µM	> 25 µM	> 25000 nM	> 25 µM	> 25 µM	> 25 µM	> 18600 nM	> 25 µM	> 25 µM	> 25 µM	> 19.5 µM	> 25 µM	> 25 µM	> 25 µM	> 24 µM	> 25 µM	> 17 µM	> 25 µM	7.75 µM	> 25 µM
CCCCCOC(=O)c1c(C)[nH]c(/C=C2\N=C(c3ccc[nH]3)C=C2OC)c1C	0.0469 µM	1.1 µM	15.4 nM	1.34 µM	0.0494 µM	1.52 µM	42.1 nM	1.25 µM	0.0115 µM	0.025 µM	0.222 µM	2.13 µM	0.057 µM	1.47 µM	0.0309 µM	1.47 µM	0.0212 µM	3.27 µM	0.0234 µM	0.0726 µM
CN1CCN(c2ccc3nc(-c4[nH]ncc4Nc4ncnc5[nH]ccc45)[nH]c3c2)CC1	0.222 µM	0.816 µM	1470 nM	6.06 µM	0.189 µM	1.41 µM	299 nM	> 100 µM	0.148 µM	0.906 µM	0.212 µM	1.01 µM	0.517 µM	4.06 µM	2.68 µM	9.78 µM	0.222 µM	3.54 µM	0.367 µM	2.15 µM
COc1ccc2c(c1)c(-c1ccc(-c3cn(C)c4ccc(OC)cc34)s1)cn2C	> 100 µM	> 100 µM	> 100000 nM	> 100 µM	> 100 µM	> 100 µM	> 100000 nM	> 100 µM	> 100 µM	> 100 µM	> 100 µM	> 100 µM	> 100 µM	> 100 µM	> 100 µM	> 100 µM	> 100 µM	> 100 µM	> 100 µM	> 100 µM
CCOc1cc(/C=C/C(=O)CC(=O)/C=C/c2ccc(OC(=O)CNc3nc4ccc(OC)cc4s3)c(OCC)c2)ccc1OC(=O)CNc1nc2ccc(OC)cc2s1	2.62 µM	8.78 µM	2280 nM	4.8 µM	–	–	2710 nM	> 100 µM	3.28 µM	12.1 µM	12.9 µM	34.1 µM	7.78 µM	75.4 µM	5.1 µM	23.4 µM	5.08 µM	67.3 µM	5.25 µM	17.2 µM
CN1CCC2(CC1)C(=O)Nc1cc(NC(=O)c3ccc4c(c3)C[C@@H]3C(C)(C)[C@H](O)[C@H](F)C[C@@]3(C)O4)ccc12	0.0691 µM	20.1 µM	2940 nM	36.8 µM	13.1 µM	> 100 µM	201 nM	> 100 µM	0.55 µM	12.5 µM	14 µM	49.3 µM	10.6 µM	42.5 µM	0.684 µM	25.4 µM	0.117 µM	> 100 µM	2.62 µM	12.3 µM
C/C(=C1\C(=O)Nc2ccccc21)c1cccc(/C(C)=C2/C(=O)Nc3ccccc32)n1	5.43 µM	36.5 µM	8090 nM	> 100 µM	35.6 µM	> 100 µM	4350 nM	> 100 µM	8.4 µM	31 µM	4.53 µM	24.5 µM	16.8 µM	60.5 µM	5.08 µM	> 100 µM	24.4 µM	> 100 µM	5.67 µM	25.4 µM
COCCn1c(Nc2ccc(C(=O)NO)cc2)nc2ccccc21	15.2 µM	67.9 µM	2970 nM	> 100 µM	2.39 µM	15.2 µM	3030 nM	> 100 µM	5.9 µM	19 µM	13.7 µM	36.9 µM	4.43 µM	16.3 µM	4.06 µM	30.4 µM	8.78 µM	> 100 µM	3.55 µM	12.9 µM
CCOC(=O)c1sc2nc(=S)[nH]c(NC(N)=S)c2c1C	12.6 µM	41 µM	20100 nM	52.9 µM	31.5 µM	> 100 µM	28300 nM	> 100 µM	15.4 µM	31 µM	–	21.1 µM	14.8 µM	37.1 µM	23.2 µM	61 µM	22.7 µM	94.6 µM	16.8 µM	31.7 µM
O=C(Nc1ccc(Nc2ccc3c(c2)C(=O)c2ccccc2C3=O)c2c1C(=O)c1ccccc1C2=O)c1ccccc1	–	> 100 µM	–	> 100 µM	–	> 100 µM	–	> 100 µM	–	> 100 µM	–	> 100 µM	–	> 100 µM	–	35.4 µM	–	> 100 µM	–	> 100 µM
O=C(O)C1CCCN1 (stereo unspecified)	–	> 100 µM	–	> 100 µM	–	> 100 µM	–	> 100 µM	–	> 100 µM	–	> 100 µM	–	> 100 µM	–	> 100 µM	–	> 100 µM	–	> 100 µM
O=c1oc2ccccc2cc1P(=O)(O)O	–	> 100 µM	–	> 100 µM	–	> 100 µM	–	> 100 µM	–	> 100 µM	–	> 100 µM	–	> 100 µM	–	> 100 µM	–	> 100 µM	–	> 100 µM
CN(C)CCN1C(=O)c2cccc3cc(N)cc(c23)C1=O	11.2 µM	28.3 µM and 13.1 µM	2750 nM	12 µM and 14.1 µM	2.68 µM	> 44.1 µM and 20.8 µM	–	> 100 µM and 37.4 µM	2.18 µM	> 31.3 µM and 7.29 µM	1.51 µM	5.34 µM and 8.51 µM	3.43 µM	22.7 µM and 14.1 µM	–	5.34 µM and 5.95 µM	4.07 µM	42.8 µM and 8.73 µM	1.88 µM	4.44 µM and 6.46 µM
Clc1ccc2c(NC3CCC(NC4CCCCC4)CC3)ccnc2c1 (stereo unspecified)	12.3 µM	25.1 µM	1570 nM	7.88 µM	6.64 µM	30.8 µM	–	–	1.75 µM	4.29 µM	12.8 µM	46.5 µM	7.74 µM	35.9 µM	5.27 µM	18.6 µM	11.2 µM	43.2 µM	1.77 µM	3.2 µM
CCCCCCCCCCCC(c1ccccc1)[N+](C)(C)C (stereo unspecified)	1.31 µM	2.95 µM	296 nM	2.45 µM	0.417 µM	1.79 µM	673 nM	4.09 µM	0.425 µM	2.5 µM	1.97 µM	7.22 µM	1 µM	5.86 µM	1.28 µM	3.2 µM	0.393 µM	2.52 µM	0.874 µM	2.11 µM
Cc1ccc(/C=C/C(=O)c2ccc(F)cc2)s1	3.02 µM	8.49 µM	2090 nM	4.11 µM	2.17 µM	5.25 µM	–	–	1.87 µM	3.59 µM	10.4 µM	24 µM	3.67 µM	16.5 µM	3.24 µM	10.6 µM	2.64 µM	7.11 µM	12.2 µM	24.9 µM
c1ccc2[nH]c(-c3ccc(Nc4nc(N5CCCC5)nc5[nH]ncc45)cc3)nc2c1	1.68 µM	3.47 µM	211 nM	0.495 µM	–	–	202 nM	0.466 µM	–	–	1.8 µM	4.01 µM	0.808 µM	2.7 µM	0.412 µM	1.77 µM	1.61 µM	4.71 µM	1.29 µM	2.56 µM
Oc1ccc(CCNc2nc3ccccc3c3[nH]c4ccccc4c23)cc1O	9.27 µM	21.3 µM	3200 nM	11.1 µM	–	–	1830 nM	4.13 µM	1.77 µM	3.28 µM	11 µM	24.3 µM	6.87 µM	22.7 µM	2.17 µM	5.54 µM	1.51 µM	3.63 µM	3.2 µM	11.5 µM
C=C1C(=O)O[C@@H]2C[C@@]3(C)CCC[C@H](C)C3=C[C@H]12 (tested in a mixture with another compound)	–	3.31 µM	–	5.34 µM	–	7.71 µM	–	–	–	11.7 µM	–	16.6 µM	–	5.67 µM	–	14.3 µM	–	10 µM	–	3.9 µM
Cc1cc[c]([Sb]2[O]C(CO)C(C(O)C(O)C(=O)O)[O]2)cc1 (stereo unspecified)	> 100 µM	> 100 µM	46400 nM	> 100 µM	> 100 µM	> 100 µM	46500 nM	> 100 µM	39.9 µM	> 100 µM	39.9 µM	> 100 µM	> 100 µM	> 100 µM	–	–	57.7 µM	> 100 µM	> 100 µM	> 100 µM
COC1C(OC(=O)/C=C/C=C/C=C/C=C/C(=O)O)CCC2(CO2)C1C1(C)OC1CC=C(C)C (stereo unspecified)	0.268 µM	> 100 µM	181 nM	–	–	> 95.1 µM	–	> 89.6 µM	0.183 µM	–	–	> 100 µM	0.193 µM	> 83.7 µM	–	–	–	73.1 µM	0.271 µM	> 64.9 µM
CCN(Cc1ccccc1)c1ccc(/C=C2\COc3ccccc3C2=O)cc1	340 µM	> 1000 µM	135000 nM	> 1000 µM	> 1000 µM	> 1000 µM	–	–	243 µM	> 1000 µM	> 1000 µM	> 1000 µM	818 µM	> 1000 µM	> 1000 µM	> 1000 µM	343 µM	> 1000 µM	398 µM	> 1000 µM
CCN(CC)CCN1C(=O)C2C3C(C)=CC(OC(C)=O)(CC3C)C2C1=O (stereo unspecified)	> 100 µM	> 100 µM	> 100000 nM	> 100 µM	> 100 µM	> 100 µM	> 100000 nM	> 100 µM	> 100 µM	> 100 µM	> 100 µM	> 100 µM	> 100 µM	> 100 µM	–	–	> 100 µM	> 100 µM	> 100 µM	> 100 µM
CCC(C)[C@@H]1NC(=O)[C@@H]2CCCN2C(=O)C(CC(O)CCl)OC(=O)CCNC(=O)[C@H](C)N(C)C(=O)[C@H](C(C)C)N(C)C1=O (stereo partly specified) (cyclo([Ile(3ξ)][NMeV][NMeA][βAla][Pentanoyl(2-O,4-OH,5-Cl)]P))	–	> 100 µM	–	> 100 µM	–	> 100 µM	–	> 100 µM	–	–	–	> 100 µM	–	> 100 µM	–	> 100 µM	–	> 100 µM	–	2.29 µM
O=C(O)CN(CCN(CC(=O)O)CC(=O)O)CCN(CC(=O)O)CC(=O)O	2.77 µM	9.45 µM	3990 nM	16.2 µM	–	–	–	–	3.22 µM	11.6 µM	4.65 µM	16.5 µM	2.45 µM	10.2 µM	2.49 µM	7.09 µM	5.46 µM	> 100 µM	2.92 µM	9.07 µM
Cc1cc2c(cc1Cl)SC(=Nc1ccc(Cl)cc1)N(S(=O)(=O)c1ccc(Br)s1)S2(=O)=O	19.2 µM	48.8 µM	–	–	17.6 µM	55.2 µM	16400 nM	77.5 µM	9.26 µM	24.3 µM	14 µM	47.1 µM	10.8 µM	25 µM	35.2 µM	> 100 µM	12.5 µM	27.1 µM	13.7 µM	43.3 µM
[Cu].c1ccc2c(c1)C1=NC2=NC2=NC(=NC3=NC(=NC4=NC(=N1)c1ccccc14)c1ccccc13)c1ccccc12	> 100 µM	> 100 µM	> 100000 nM	> 100 µM	> 100 µM	> 100 µM	> 100000 nM	> 100 µM	> 100 µM	> 100 µM	–	–	> 100 µM	> 100 µM	> 100 µM	> 100 µM	> 100 µM	> 100 µM	> 100 µM	> 100 µM
